# Where two headings read alike, the source gives them in different places.
# Columns and labels:
# Assay in all cases: Test C pre/postemergence
# Type in all cases: in vivo
# [1] = tested on: goosegrass (Eleusine indica); conditions: Eleusine indica; for pest or weed control at 125 g/ha: 125 g ai/ha
# Outline: (§1)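 Pre: seeds planted, sprayed same day. Post: 1- to 4-leaf plants (2–18 cm). Formulation: non-phytotoxic solvent + surfactant. Greenhouse 12–14 d; visual % control vs untreated, 0–100.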
# kochia (Kochia scoparia) = conditions: Bassia scoparia; for pest or weed control at 31 g/ha: 31 g ai/ha; for pest or weed control at 62 g/ha: 62 g ai/ha; for pest or weed control at 125 g/ha: 125 g ai/ha
# Outline: as §1
# [2] = tested on: lambsquarters (Chenopodium album); conditions: Chenopodium album; for pest or weed control at 31 g/ha: 31 g ai/ha; for pest or weed control at 62 g/ha: 62 g ai/ha; for pest or weed control at 125 g/ha: 125 g ai/ha
# Outline: as §1
# [3] = tested on: pigweed (Amaranthus retroflexus); conditions: Amaranthus retroflexus; for pest or weed control at 31 g/ha: 31 g ai/ha; for pest or weed control at 62 g/ha: 62 g ai/ha
# Outline: as §1
# [4] = tested on: velvetleaf (Abutilon theophrasti); conditions: Abutilon theophrasti; for pest or weed control at 31 g/ha: 31 g ai/ha; for pest or weed control at 62 g/ha: 62 g ai/ha
# Outline: as §1
# [5] = tested on: yellow nutsedge (Cyperus esculentus); conditions: Cyperus; for pest or weed control at 31 g/ha: 31 g ai/ha; for pest or weed control at 62 g/ha: 62 g ai/ha
# Outline: as §1
# [6] = post-emergence, Postemergence, read-out: Plant response rating (scale of 0 to 100), Kochia
# [7] = pre-emergence, Preemergence, scale 0 to 100, 0 no effect, 100 complete control, read-out: Plant response rating, Kochia
# [8] = post-emergence, Postemergence, read-out: Plant response rating (scale of 0 to 100), Lambsquarters
# [9] = pre-emergence, Preemergence, scale 0 to 100, 0 no effect, 100 complete control, read-out: Plant response rating, Lambsquarters
# [10] = post-emergence, Postemergence, read-out: Plant response rating (scale of 0 to 100), Pigweed
# [11] = pre-emergence, Preemergence, scale 0 to 100, 0 no effect, 100 complete control, read-out: Plant response rating, Pigweed
# [12] = post-emergence, Postemergence, read-out: Plant response rating (scale of 0 to 100), Velvetleaf
# [13] = pre-emergence, Preemergence, scale 0 to 100, 0 no effect, 100 complete control, read-out: Plant response rating, Velvetleaf
# [14] = post-emergence, Postemergence, read-out: Plant response rating (scale of 0 to 100), Nutsedge, Yellow
# [15] = pre-emergence, Preemergence, scale 0 to 100, 0 no effect, 100 complete control, read-out: Plant response rating, Nutsedge, Yellow
compound,measurement,setting,value
"Nc1nc(C2CC2)nc(C(=O)OCc2ccccc2)c1Cl [Compound 78, phenylmethyl 6-amino-5-chloro-2-cyclopropyl-4-pyrimidinecarboxylate]",pest or weed control at 125 g/ha,"[1]; post-emergence, Postemergence, scale 0 to 100 (0 no effect, 100 complete control), read-out: Goosegrass plant response rating",40%
same,pest or weed control at 250 g/ha,"[1]; post-emergence, Postemergence, 250 g ai/ha, scale 0 to 100, read-out: Plant response rating, Goosegrass",50%
same,pest or weed control at 16 g/ha,"[1]; pre-emergence, Preemergence, 16 g ai/ha, scale 0 to 100, 0 no effect, 100 complete control, read-out: Plant response rating, Goosegrass",0%
same,pest or weed control at 31 g/ha,"[1]; pre-emergence, Preemergence, 31 g ai/ha, scale 0 to 100, 0 no effect, 100 complete control, read-out: Plant response rating, Goosegrass",0%
same,pest or weed control at 62 g/ha,"[1]; pre-emergence, Preemergence, 62 g ai/ha, scale 0 to 100, 0 no effect, 100 complete control, read-out: Plant response rating, Goosegrass",0%
same,pest or weed control at 125 g/ha,"[1]; pre-emergence, Preemergence, scale 0 to 100, read-out: Plant response rating, Goosegrass",0%
same,pest or weed control at 31 g/ha,kochia (Kochia scoparia); [6],90%
same,pest or weed control at 62 g/ha,kochia (Kochia scoparia); [6],90%
same,pest or weed control at 125 g/ha,"kochia (Kochia scoparia); post-emergence, Postemergence, scale 0 to 100 (0 no effect, 100 complete control), read-out: Kochia plant response rating",95%
same,pest or weed control at 250 g/ha,"kochia (Kochia scoparia); post-emergence, Postemergence, 250 g ai/ha, scale 0 to 100, read-out: Plant response rating, Kochia",95%
same,pest or weed control at 16 g/ha,"kochia (Kochia scoparia); pre-emergence, Preemergence, 16 g ai/ha, scale 0 to 100, 0 no effect, 100 complete control, read-out: Plant response rating, Kochia",70%
same,pest or weed control at 31 g/ha,kochia (Kochia scoparia); [7],80%
same,pest or weed control at 62 g/ha,kochia (Kochia scoparia); [7],100%
same,pest or weed control at 125 g/ha,"kochia (Kochia scoparia); pre-emergence, Preemergence, scale 0 to 100, read-out: Plant response rating, Kochia",100%
same,pest or weed control at 31 g/ha,[2]; [8],90%
same,pest or weed control at 62 g/ha,[2]; [8],95%
same,pest or weed control at 125 g/ha,"[2]; post-emergence, Postemergence, scale 0 to 100 (0 no effect, 100 complete control), read-out: Lambsquarters plant response rating",95%
same,pest or weed control at 250 g/ha,"[2]; post-emergence, Postemergence, 250 g ai/ha, scale 0 to 100, read-out: Plant response rating, Lambsquarters",100%
same,pest or weed control at 16 g/ha,"[2]; pre-emergence, Preemergence, 16 g ai/ha, scale 0 to 100, 0 no effect, 100 complete control, read-out: Plant response rating, Lambsquarters",0%
same,pest or weed control at 31 g/ha,[2]; [9],70%
same,pest or weed control at 62 g/ha,[2]; [9],80%
same,pest or weed control at 125 g/ha,"[2]; pre-emergence, Preemergence, scale 0 to 100, read-out: Plant response rating, Lambsquarters",80%
same,pest or weed control at 31 g/ha,[3]; [10],50%
same,pest or weed control at 62 g/ha,[3]; [10],80%
same,pest or weed control at 125 g/ha,"[3]; post-emergence, Postemergence, 125 g ai/ha, scale 0 to 100 (0 no effect, 100 complete control), read-out: Pigweed plant response rating",95%
same,pest or weed control at 250 g/ha,"[3]; post-emergence, Postemergence, 250 g ai/ha, scale 0 to 100, read-out: Plant response rating, Pigweed",100%
same,pest or weed control at 16 g/ha,"[3]; pre-emergence, Preemergence, 16 g ai/ha, scale 0 to 100, 0 no effect, 100 complete control, read-out: Plant response rating, Pigweed",55%
same,pest or weed control at 31 g/ha,[3]; [11],60%
same,pest or weed control at 62 g/ha,[3]; [11],70%
same,pest or weed control at 31 g/ha,[4]; [12],50%
same,pest or weed control at 62 g/ha,[4]; [12],80%
same,pest or weed control at 125 g/ha,"[4]; post-emergence, Postemergence, 125 g ai/ha, scale 0 to 100 (0 no effect, 100 complete control), read-out: Velvetleaf plant response rating",95%
same,pest or weed control at 250 g/ha,"[4]; post-emergence, Postemergence, 250 g ai/ha, scale 0 to 100, read-out: Plant response rating, Velvetleaf",100%
same,pest or weed control at 16 g/ha,"[4]; pre-emergence, Preemergence, 16 g ai/ha, scale 0 to 100, 0 no effect, 100 complete control, read-out: Plant response rating, Velvetleaf",10%
same,pest or weed control at 31 g/ha,[4]; [13],55%
same,pest or weed control at 62 g/ha,[4]; [13],70%
same,pest or weed control at 31 g/ha,[5]; [14],0%
same,pest or weed control at 62 g/ha,[5]; [14],0%
same,pest or weed control at 125 g/ha,"[5]; post-emergence, Postemergence, 125 g ai/ha, scale 0 to 100 (0 no effect, 100 complete control), read-out: Nutsedge, Yellow plant response rating",0%
same,pest or weed control at 250 g/ha,"[5]; post-emergence, Postemergence, 250 g ai/ha, scale 0 to 100, read-out: Plant response rating, Nutsedge, Yellow",0%
same,pest or weed control at 16 g/ha,"[5]; pre-emergence, Preemergence, 16 g ai/ha, scale 0 to 100, 0 no effect, 100 complete control, read-out: Plant response rating, Nutsedge, Yellow",0%
same,pest or weed control at 31 g/ha,[5]; [15],0%
same,pest or weed control at 62 g/ha,[5]; [15],0%
